# Test system: HBV replication in HepG2.2.15 cells
# Assay: HBV inhibition assay in HepG2.2.15 cells (extracellular HBV DNA by qPCR)
# Format: cell-based, Hepatitis B virus
# Conditions: Hepatitis B virus, HepG2.2.15, 120 h, five days after compound treatment, extracellular HBV DNA in culture supernatant by qPCR, read-out: EC50 (effective compound concentration at which HBV replication was inhibited by 50%)
# Source text: HepG2.2.15 is a stably-transfected cell line containing the HBV genome. It is derived from the hepatoblastoma cell line Hep G2 (American Type Culture Collection, ATCC® HB-8065™) by the published procedures described in reference: M A Selles et al. Proc. Natl. Acad. Sci. USA 1987, 84, 1005-1009. The cell line was maintained in Dulbecco's modified Eagle's medium and nutrient mixture F-12 (DMEM/F-12, Gibco, Cat. #: 11320-033) supplemented with 10% fetal bovine serum (Gibco, Cat. #:10099-141), 100 U/mL penicillin, 100 μg/mL streptomycin (Gibco, Cat. #:15140-122), and 0.3 mg/mL of G418 Sulfate (Gibco, Cat. #: 10131-027).
# HepG2.2.15 cells were seeded into 96-well plates at a density of 3×10^4 cells per well in culture media of 100 μL DMEM/F-12 supplemented with 2.5% fetal bovine serum, 100 U/mL penicillin, 100 μg/mL streptomycin and cultured overnight at 37° C. The test compounds were serially half-log diluted in DMSO, then diluted 100 times in culture media. 100 μL culture media containing diluted compounds were added into the plates to reach 0.5% final concentration of DMSO in every well. Five days after compound treatment, culture supernatant was collected for further analysis.
# For quantitative PCR detection of extracellular HBV DNA, culture supernatant was processed by 500 μg/mL Proteinase K (Sigma, Cat. #:P2308) digestion at 50° C. for 1 hour. After heat inactivation of the enzyme at 95° C. for 15 minutes, the samples were subjected to HBV DNA quantification by qPCR. The effective compound concentration at which HBV replication was inhibited by 50% (EC50) was determined.
row,SMILES,EC50 [nM]
1,"C[C@H]1Cn2ncc(N3CCS3(=O)=O)c2CN1C(=O)Nc1cc(F)c(F)c(F)c1 [Example 25, (6S)-3-(1,1-dioxothiazetidin-2-yl)-6-methyl-N-(3,4,5-trifluorophenyl)-6,7-dihydro-4H-pyrazolo[1,5-a]pyrazine-5-carboxamide]",140
2,"C[C@H]1Cn2ncc(N3CC(O)CNS3(=O)=O)c2CN1C(=O)Nc1cc(F)c(F)c(F)c1 (stereo partly drawn) [Example 26, (6S)-3-(4-hydroxy-1,1-dioxo-1,2,6-thiadiazinan-2-yl)-6-methyl-N-(3,4,5-trifluorophenyl)-6,7-dihydro-4H-pyrazolo[1,5-a]pyrazine-5-carboxamide]",130
3,"C[C@H]1Cn2ncc(N3CCCNS3(=O)=O)c2CN1C(=O)Nc1cc(F)c(F)c(F)c1 [Example 27, (6S)-3-(1,1-dioxo-1,2,6-thiadiazinan-2-yl)-6-methyl-N-(3,4,5-trifluorophenyl)-6,7-dihydro-4H-pyrazolo[1,5-a]pyrazine-5-carboxamide]",44
4,"CC1C(O)CS(=O)(=O)N1c1cnn2c1CN(C(=O)Nc1cc(F)c(F)c(F)c1)[C@@H](C)C2 (stereo partly drawn) [Example 28-1, (6S)-3-(4-hydroxy-3-methyl-1,1-dioxo-1,2-thiazolidin-2-yl)-6-methyl-N-(3,4,5-trifluorophenyl)-6,7-dihydro-4H-pyrazolo[1,5-a]pyrazine-5-carboxamide]",21
5,"CC1C(O)CS(=O)(=O)N1c1cnn2c1CN(C(=O)Nc1ccnc(C(F)F)c1)[C@@H](C)C2 (stereo partly drawn) [Example 29, (6S)—N-[2-(difluoromethyl)-4-pyridyl]-3-(4-hydroxy-3-methyl-1,1-dioxo-1,2-thiazolidin-2-yl)-6-methyl-6,7-dihydro-4H-pyrazolo[1,5-a]pyrazine-5-carboxamide]",320
6,"CC1C(Oc2ncccn2)CS(=O)(=O)N1c1cnn2c1CN(C(=O)Nc1cc(F)c(F)c(F)c1)[C@@H](C)C2 (stereo partly drawn) [Example 30, (6S)-6-methyl-3-(3-methyl-1,1-dioxo-4-pyrimidin-2-yloxy-1,2-thiazolidin-2-yl)-N-(3,4,5-trifluorophenyl)-6,7-dihydro-4H-pyrazolo[1,5-a]pyrazine-5-carboxamide]",3.5
7,"COC1CS(=O)(=O)N(c2cnn3c2CN(C(=O)Nc2cc(F)c(F)c(F)c2)[C@@H](C)C3)C1C (stereo partly drawn) [Example 31, (6S)-3-(4-methoxy-3-methyl-1,1-dioxo-1,2-thiazolidin-2-yl)-6-methyl-N-(3,4,5-trifluorophenyl)-6,7-dihydro-4H-pyrazolo[1,5-a]pyrazine-5-carboxamide]",9.7
8,"COC1CS(=O)(=O)N(c2cnn3c2CN(C(=O)Nc2ccnc(C(F)F)c2)[C@@H](C)C3)C1C (stereo partly drawn) [Example 32-1, (6S)—N-[2-(difluoromethyl)-4-pyridyl]-3-(4-methoxy-3-methyl-1,1-dioxo-1,2-thiazolidin-2-yl)-6-methyl-6,7-dihydro-4H-pyrazolo[1,5-a]pyrazine-5-carboxamide]",170
9,"C[C@H]1Cn2ncc(N3CCCS3(=O)=O)c2CN1C(=O)NCc1ccsc1 [Example 34, (6S)-3-(1,1-dioxo-1,2-thiazolidin-2-yl)-6-methyl-N-(3-thienylmethyl)-6,7-dihydro-4H-pyrazolo[1,5-a]pyrazine-5-carboxamide]",99
10,"C[C@H]1Cn2ncc(N3CC(N4CCC[C@H]4C(=O)O)CS3(=O)=O)c2CN1C(=O)Nc1cc(F)c(F)c(F)c1 (stereo partly drawn) [Example 35, (2S)-1-[2-[(6S)-6-methyl-5-[(3,4,5-trifluorophenyl)carbamoyl]-6,7-dihydro-4H-pyrazolo[1,5-a]pyrazin-3-yl]-1,1-dioxo-1,2-thiazolidin-4-yl]pyrrolidine-2-carboxylic Acid]",6.7
11,"C[C@H]1Cn2ncc(N3CC(c4ccccc4C(=O)O)CS3(=O)=O)c2CN1C(=O)Nc1cc(F)c(F)c(F)c1 (stereo partly drawn) [Example 36, 2-[2-[(6S)-6-methyl-5-[(3,4,5-trifluorophenyl)carbamoyl]-6,7-dihydro-4H-pyrazolo[1,5-a]pyrazin-3-yl]-1,1-dioxo-1,2-thiazolidin-4-yl]benzoic acid]",17

# Same assay, conditions: five days after compound treatment, extracellular HBV DNA in culture supernatant by qPCR, read-out: EC50 (effective compound concentration at which HBV replication was inhibited by 50%)
row,SMILES,EC50 [nM]
1,"CC1C(O)CS(=O)(=O)N1c1cnn2c1CN(C(=O)Nc1cc(F)c(F)c(F)c1)[C@@H](C)C2 (stereo partly drawn) [Example 28-2, (6S)-3-(4-hydroxy-3-methyl-1,1-dioxo-1,2-thiazolidin-2-yl)-6-methyl-N-(3,4,5-trifluorophenyl)-6,7-dihydro-4H-pyrazolo[1,5-a]pyrazine-5-carboxamide]",18
